In assay [1] the test system is Escherichia coli ATCC 25922. In words: Minimal Inhibitory Concentration (MIC) broth dilution assay. As to conditions: ATCC25922, 20 h, read-out: MIC Escherichia coli ATCC 25922. The class given is cell-based. The method, then: (§1) The antibacterial activity of the compounds of the present invention was evaluated against the commonly used quality control strain Escherichia coli ATCC 25922 and the rifampin-resistant mutant strain Klebsiella pneumonia ATCC 43816. Both were originally derived from human clinical samples and are available from ATCC (American Type Culture Collection). The in vitro potency of compounds to inhibit Escherichia coli (ATCC 25922) and Klebsiella pneumonia (ATCC 43816) growth was assessed by the MIC (Minimal Inhibitory Concentration) broth dilution method. Specifically compound dilutions were prepared from 10 mM DMSO stock solutions as follows: i) serial 2-fold dilution in 20 μL DMSO were prepared in a master plate (Greiner, Cat No: 651201), ii) 180 μL sterile distilled water was added to each aliquot and iii) 10 μL diluted compounds were transferred into a new assay plate (Costar, 3599).
(§2) Vials of each test microorganisms were maintained frozen in the vapor phase of a liquid nitrogen freezer. Single-use frozen vials of the two strains Escherichia coli ATCC 25922 (KWIKSTIK, 0335K) and Klebsiella pneumonia ATCC 43816, with predetermined CFU/mL, were taken out from the freezer, thawed at room temperature, and diluted in Cation-Adjusted Mueller Hinton Broth (CAMHB) to achieve a final inoculum of 5×10^5 CFU/mL. 90 μL bacteria containing broth was dispensed to the assay plate containing the pre-dispensed compound dilutions and mixed by pipetting 5 times.
(§3) Then the assay plates were incubated for 20 hours at 35° C. in ambient air. Following incubation, the MIC ([…]), the lowest concentration of drug that inhibits visible growth of the microorganism was read with the help of a magnification mirror and recorded.
(Broth dilution looks for growth in wells or tubes with falling amounts of substance.)

Assay [2] deals with Klebsiella pneumonia ATCC 43816. The description is as above. The assay is classed as cell-based. As to conditions: Klebsiella pneumoniae, ATCC43816, 20 h, read-out: MIC Klebsiella pneumoniae ATCC43816. The method, then: as §1, §2, §3

This passage reports MIC results from patent publication US20260217672A1, “BENZAMIDE COMPOUNDS FOR TREATMENT OF BACTERIAL INFECTIONS” (Hoffmann-La Roche Inc., priority 2022, published 2026).

Values after ≈ are worked out from the molar mass of the structure shown.

As a reminder, the MIC is the lowest concentration found to suppress growth. Regarding `Cc1cc(C(F)(F)F)cc(N2CCN(S(=O)(=O)c3ccc(NC(=O)c4cccc(CNCCCN)c4)cc3)CC2)n1` [Example 018, 3-[(3-Aminopropylamino)methyl]-N-[4-[4-[6-methyl-4-(trifluoromethyl)-2-pyridyl]piperazin-1-yl]sulfonylphenyl]benzamide], the values for the MIC in assay [1] and in assay [2] were 0.64 µg/mL (≈ 1.08 µM) and 2.6 µg/mL (≈ 4.4 µM), respectively.
Turning to `CCc1cc(C(F)(F)F)cc(N2CCN(S(=O)(=O)c3ccc(NC(=O)c4ccc(CNCCCN)cc4)cc3)CC2)n1` [Example 011, 4-[(3-Aminopropylamino)methyl]-N-[4-[4-[6-ethyl-4-(trifluoromethyl)-2-pyridyl]piperazin-1-yl]sulfonylphenyl]benzamide], the MIC in assay [1] came to 3.8 µg/mL (≈ 6.28 µM); in assay [2] it was 7.6 µg/mL (≈ 12.6 µM).
For the compound `NCCC1CCCN1Cc1ccc(C(=O)Nc2ccc(S(=O)(=O)N3CCN(c4cc(C(F)(F)F)cc(Cl)n4)CC3)cc2)cc1` (stereo in doubt) [Example 072, N-[4-[4-[6-chloro-4-(trifluoromethyl)-2-pyridyl]piperazin-1-yl]sulfonylphenyl]-4-[[(2S)-2-(2-aminoethyl)pyrrolidin-1-yl]methyl]benzamide], the MIC came out at 1 µg/mL (≈ 1.54 µM) in assay [1] and 2 µg/mL (≈ 3.07 µM) in assay [2].
The matching figures for `NCCCNCc1ccccc1C(=O)Nc1ccc(S(=O)(=O)N2CCN(c3cc(C(F)(F)F)cc(Cl)n3)CC2)cc1` [Example 088, 2-[(3-Aminopropylamino)methyl]-N-[4-[4-[6-chloro-4-(trifluoromethyl)-2-pyridyl]piperazin-1-yl]sulfonylphenyl]benzamide]: 1.3 µg/mL (≈ 2.13 µM) and 2.6 µg/mL (≈ 4.25 µM).
`O=C(Nc1ccc(S(=O)(=O)N2CCN(c3cc(C(F)(F)F)cc(Cl)n3)CC2)cc1)c1ccc2c(c1)CNC2` [Example 046, N-[4-[4-[6-chloro-4-(trifluoromethyl)-2-pyridyl]piperazin-1-yl]sulfonylphenyl]isoindoline-5-carboxamide]: the MIC in assay [1] and in assay [2] was 0.47 µg/mL (≈ 0.83 µM) each time.
Turning to `NCCCNC1CCc2ccc(C(=O)Nc3ccc(S(=O)(=O)N4CCN(c5cc(C(F)(F)F)cc(Cl)n5)CC4)cc3)cc21` (centres unmarked) [Example 062, 3-(3-Aminopropylamino)-N-[4-[4-[6-chloro-4-(trifluoromethyl)-2-pyridyl]piperazin-1-yl]sulfonylphenyl]indane-5-carboxamide], the figures for the minimum inhibitory concentration (MIC) in assay [1] and in assay [2] were 2.1 µg/mL (≈ 3.3 µM) and 4.2 µg/mL (≈ 6.59 µM), respectively.
As to `COc1cc(NC(=O)c2cccc(CNCCCN)c2)ccc1S(=O)(=O)N1CCN(c2cc(C(F)(F)F)cc(Cl)n2)CC1` [Example 027, 3-[(3-Aminopropylamino)methyl]-N-[4-[4-[6-chloro-4-(trifluoromethyl)-2-pyridyl]piperazin-1-yl]sulfonyl-3-methoxy-phenyl]benzamide], the MIC in assay [1] and in assay [2] was 4 µg/mL (≈ 6.24 µM) in each case.
Regarding `NCCCNCc1cncc(C(=O)Nc2ccc(S(=O)(=O)N3CCN(c4cc(C(F)(F)F)cc(Cl)n4)CC3)cc2)c1` [Example 060, 5-[(3-Aminopropylamino)methyl]-N-[4-[4-[6-chloro-4-(trifluoromethyl)-2-pyridyl]piperazin-1-yl]sulfonylphenyl]pyridine-3-carboxamide], the MIC came out at 0.48 µg/mL (≈ 0.784 µM) in assay [1] and 1.9 µg/mL (≈ 3.1 µM) in assay [2].
As to `O=C(Nc1ccc(S(=O)(=O)N2CCN(c3cc(C(F)(F)F)cc(Cl)n3)CC2)cc1)c1ccc(CCNCCCN2CCOCC2)cc1` [Example 073, N-[4-[4-[6-chloro-4-(trifluoromethyl)-2-pyridyl]piperazin-1-yl]sulfonylphenyl]-4-[2-(3-morpholinopropylamino)ethyl]benzamide], the MIC in assay [1] was found to be 1.4 µg/mL (≈ 2.01 µM); in assay [2] it was 2.9 µg/mL (≈ 4.17 µM).
Take `N[C@@H]1CCN(c2cccc(C(=O)Nc3ccc(S(=O)(=O)N4CCN(c5cc(C(F)(F)F)cc(Cl)n5)CC4)cc3)c2)C1` [Example 051, N-[4-[4-[6-chloro-4-(trifluoromethyl)-2-pyridyl]piperazin-1-yl]sulfonylphenyl]-3-[(3R)-3-aminopyrrolidin-1-yl]benzamide]: the results for the minimum inhibitory concentration (MIC) in assay [1] and in assay [2] were 0.56 µg/mL (≈ 0.919 µM) and 1.1 µg/mL (≈ 1.81 µM), respectively.
